Common to all, as to format: biochemical
In one test the target is VHR (Homo sapiens, UniProt P51452). The test can be described thus: PTP inhibition assay (pNPP). The following applies: pNPP at Km, pH 7.0, 25° C.
The target of a further test is PTPα (Homo sapiens, UniProt P18433). The experiment in a line: PTP inhibition assay (pNPP).
Another test has as its target PTPε (Homo sapiens, UniProt P23469). The test can be described thus: PTP inhibition assay (pNPP).
The next test deals with T1, VHX (Homo sapiens, UniProt Q9NRW4).
T1 sequence (Q9NRW4 1-184): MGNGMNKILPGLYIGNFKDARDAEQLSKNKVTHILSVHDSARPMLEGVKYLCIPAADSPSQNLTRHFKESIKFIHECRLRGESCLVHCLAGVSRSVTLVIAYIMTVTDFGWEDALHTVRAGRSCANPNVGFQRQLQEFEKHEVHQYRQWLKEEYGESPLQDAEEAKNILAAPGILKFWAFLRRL
The test can be described thus: PTP inhibition assay (pNPP). The following applies: pNPP at Km, pH 7.0, 25° C.

Another test deals with T2, SHP2 (Homo sapiens, UniProt Q06124).
T2 sequence (Q06124 224-528): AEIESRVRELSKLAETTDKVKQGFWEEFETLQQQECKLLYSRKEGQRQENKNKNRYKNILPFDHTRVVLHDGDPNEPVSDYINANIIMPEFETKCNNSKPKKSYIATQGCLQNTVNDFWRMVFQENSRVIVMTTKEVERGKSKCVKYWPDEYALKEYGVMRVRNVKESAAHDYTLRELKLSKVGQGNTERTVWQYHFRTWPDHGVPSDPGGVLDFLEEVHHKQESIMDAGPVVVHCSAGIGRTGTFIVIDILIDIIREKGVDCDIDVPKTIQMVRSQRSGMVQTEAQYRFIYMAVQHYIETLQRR
The experiment in a line: SHP2 phosphatase inhibition assay (pNPP). The following applies: pNPP at Km, pH 7.0, 25° C.; read-out: IC50 SHP2.

For another test, the target named is T3, PTP1B (Homo sapiens, UniProt P18031).
T3 sequence (P18031 1-435): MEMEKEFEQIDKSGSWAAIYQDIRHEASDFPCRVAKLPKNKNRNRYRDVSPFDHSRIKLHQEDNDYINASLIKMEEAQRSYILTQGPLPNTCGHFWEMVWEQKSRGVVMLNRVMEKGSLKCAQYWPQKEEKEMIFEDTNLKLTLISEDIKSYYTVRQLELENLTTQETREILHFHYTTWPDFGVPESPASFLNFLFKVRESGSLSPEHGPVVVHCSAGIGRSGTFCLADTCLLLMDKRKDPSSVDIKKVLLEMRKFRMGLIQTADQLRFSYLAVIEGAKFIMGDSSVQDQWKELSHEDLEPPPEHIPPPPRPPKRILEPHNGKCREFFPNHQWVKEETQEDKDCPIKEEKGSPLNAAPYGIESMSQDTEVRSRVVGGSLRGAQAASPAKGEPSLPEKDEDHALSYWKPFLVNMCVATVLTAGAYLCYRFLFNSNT
The test can be described thus: PTP inhibition assay (pNPP). The following applies: pNPP at Km, pH 7.0, 25° C.

In a further test the target is T4, TcPTP (Homo sapiens, UniProt P17706).
T4 sequence (P17706 1-415): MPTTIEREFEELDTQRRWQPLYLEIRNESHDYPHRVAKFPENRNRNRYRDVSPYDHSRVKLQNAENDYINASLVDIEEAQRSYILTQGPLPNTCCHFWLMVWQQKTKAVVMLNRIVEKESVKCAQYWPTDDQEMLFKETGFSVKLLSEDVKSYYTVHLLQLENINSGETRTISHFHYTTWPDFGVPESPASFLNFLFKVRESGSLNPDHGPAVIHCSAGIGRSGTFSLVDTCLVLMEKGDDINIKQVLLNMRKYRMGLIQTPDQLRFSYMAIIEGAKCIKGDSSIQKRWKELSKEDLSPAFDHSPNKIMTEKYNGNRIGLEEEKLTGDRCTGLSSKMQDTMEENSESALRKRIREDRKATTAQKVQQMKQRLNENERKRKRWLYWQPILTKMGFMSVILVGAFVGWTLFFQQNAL
The test can be described thus: PTP inhibition assay (pNPP). The following applies: pNPP at Km, pH 7.0, 25° C.; read-out: IC50 TcPTP.

Another test addresses PTPγ (Homo sapiens, UniProt P23470). The experiment in a line: PTP inhibition assay (pNPP).
The next test deals with T5, Meg2 (Homo sapiens, UniProt P43378).
T5 sequence (P43378 1-593): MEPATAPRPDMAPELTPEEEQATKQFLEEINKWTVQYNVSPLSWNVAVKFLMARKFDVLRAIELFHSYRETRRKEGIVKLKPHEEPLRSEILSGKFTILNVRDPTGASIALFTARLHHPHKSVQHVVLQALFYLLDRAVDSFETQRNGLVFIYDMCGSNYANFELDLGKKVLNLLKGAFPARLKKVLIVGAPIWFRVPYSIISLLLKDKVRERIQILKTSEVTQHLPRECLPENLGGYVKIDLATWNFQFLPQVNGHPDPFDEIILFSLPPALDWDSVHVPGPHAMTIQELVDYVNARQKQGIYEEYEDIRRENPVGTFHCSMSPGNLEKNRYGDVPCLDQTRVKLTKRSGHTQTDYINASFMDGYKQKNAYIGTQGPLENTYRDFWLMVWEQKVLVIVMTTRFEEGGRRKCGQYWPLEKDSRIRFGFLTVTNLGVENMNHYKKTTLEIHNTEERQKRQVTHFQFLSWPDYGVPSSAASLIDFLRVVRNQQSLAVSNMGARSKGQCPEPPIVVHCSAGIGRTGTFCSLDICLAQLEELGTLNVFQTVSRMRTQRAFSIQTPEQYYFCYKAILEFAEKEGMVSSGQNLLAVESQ
The experiment in a line: PTP inhibition assay (pNPP).

Setting [1] is: read-out: IC50 VHX (second VHX line of Table 15).

Read-outs that look alike come from different tables or passages of the source.

A word on the IC50: it is the concentration that gives 50% inhibition.

Chain of PTPγ (P23470 20-1445): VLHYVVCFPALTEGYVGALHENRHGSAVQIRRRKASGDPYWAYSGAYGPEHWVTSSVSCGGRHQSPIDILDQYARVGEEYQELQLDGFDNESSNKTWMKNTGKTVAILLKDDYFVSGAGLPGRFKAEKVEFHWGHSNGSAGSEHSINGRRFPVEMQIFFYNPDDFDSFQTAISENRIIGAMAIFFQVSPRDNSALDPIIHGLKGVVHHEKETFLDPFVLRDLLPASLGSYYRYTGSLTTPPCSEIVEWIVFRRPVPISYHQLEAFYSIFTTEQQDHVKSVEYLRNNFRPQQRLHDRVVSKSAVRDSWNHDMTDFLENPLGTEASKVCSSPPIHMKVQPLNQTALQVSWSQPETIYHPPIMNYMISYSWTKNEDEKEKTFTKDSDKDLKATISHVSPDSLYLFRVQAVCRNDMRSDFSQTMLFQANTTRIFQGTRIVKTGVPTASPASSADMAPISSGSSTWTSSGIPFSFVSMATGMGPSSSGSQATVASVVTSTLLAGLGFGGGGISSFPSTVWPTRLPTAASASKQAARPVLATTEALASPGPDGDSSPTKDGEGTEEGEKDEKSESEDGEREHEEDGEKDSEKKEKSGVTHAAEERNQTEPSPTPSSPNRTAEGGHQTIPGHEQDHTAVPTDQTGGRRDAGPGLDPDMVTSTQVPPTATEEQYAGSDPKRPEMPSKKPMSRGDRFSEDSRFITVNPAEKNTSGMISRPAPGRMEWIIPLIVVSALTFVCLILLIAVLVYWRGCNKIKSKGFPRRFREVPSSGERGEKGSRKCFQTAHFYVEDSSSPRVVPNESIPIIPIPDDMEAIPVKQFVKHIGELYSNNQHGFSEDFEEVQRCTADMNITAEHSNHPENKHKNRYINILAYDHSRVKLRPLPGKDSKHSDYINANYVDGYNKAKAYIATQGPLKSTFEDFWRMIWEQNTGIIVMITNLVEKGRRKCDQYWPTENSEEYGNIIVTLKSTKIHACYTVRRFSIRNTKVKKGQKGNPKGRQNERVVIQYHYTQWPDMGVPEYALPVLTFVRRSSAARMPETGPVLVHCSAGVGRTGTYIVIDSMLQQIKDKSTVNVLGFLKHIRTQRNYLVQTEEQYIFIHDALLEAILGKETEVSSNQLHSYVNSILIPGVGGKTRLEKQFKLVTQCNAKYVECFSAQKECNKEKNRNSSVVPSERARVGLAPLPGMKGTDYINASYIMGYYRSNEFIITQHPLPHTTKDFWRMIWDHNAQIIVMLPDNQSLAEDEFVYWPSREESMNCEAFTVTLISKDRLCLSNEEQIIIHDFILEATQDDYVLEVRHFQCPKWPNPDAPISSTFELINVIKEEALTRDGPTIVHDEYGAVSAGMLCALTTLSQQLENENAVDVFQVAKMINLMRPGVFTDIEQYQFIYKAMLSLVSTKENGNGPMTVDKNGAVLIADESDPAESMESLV
Chain of PTPα (P18433 20-802): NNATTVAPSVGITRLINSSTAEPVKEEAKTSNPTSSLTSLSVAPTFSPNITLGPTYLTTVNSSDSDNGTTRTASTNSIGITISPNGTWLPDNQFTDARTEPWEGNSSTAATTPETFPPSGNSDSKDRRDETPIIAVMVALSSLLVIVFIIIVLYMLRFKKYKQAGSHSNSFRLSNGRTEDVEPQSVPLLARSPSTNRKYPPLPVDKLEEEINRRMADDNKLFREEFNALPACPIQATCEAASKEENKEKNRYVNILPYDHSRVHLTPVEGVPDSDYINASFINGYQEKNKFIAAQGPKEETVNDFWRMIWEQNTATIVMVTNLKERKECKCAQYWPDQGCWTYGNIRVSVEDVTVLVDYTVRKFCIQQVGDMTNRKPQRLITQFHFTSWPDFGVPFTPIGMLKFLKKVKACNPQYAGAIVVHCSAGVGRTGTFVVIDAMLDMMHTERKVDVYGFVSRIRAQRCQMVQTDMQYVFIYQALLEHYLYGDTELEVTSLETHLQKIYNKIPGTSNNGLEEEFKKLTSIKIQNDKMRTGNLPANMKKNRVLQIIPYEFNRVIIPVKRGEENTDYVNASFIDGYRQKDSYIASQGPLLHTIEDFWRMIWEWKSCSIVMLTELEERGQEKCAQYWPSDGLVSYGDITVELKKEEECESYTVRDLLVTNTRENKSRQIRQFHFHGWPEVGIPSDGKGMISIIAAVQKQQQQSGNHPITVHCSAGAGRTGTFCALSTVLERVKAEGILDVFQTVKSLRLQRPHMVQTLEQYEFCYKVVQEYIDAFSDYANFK
Chain of PTPε (P23469 20-700): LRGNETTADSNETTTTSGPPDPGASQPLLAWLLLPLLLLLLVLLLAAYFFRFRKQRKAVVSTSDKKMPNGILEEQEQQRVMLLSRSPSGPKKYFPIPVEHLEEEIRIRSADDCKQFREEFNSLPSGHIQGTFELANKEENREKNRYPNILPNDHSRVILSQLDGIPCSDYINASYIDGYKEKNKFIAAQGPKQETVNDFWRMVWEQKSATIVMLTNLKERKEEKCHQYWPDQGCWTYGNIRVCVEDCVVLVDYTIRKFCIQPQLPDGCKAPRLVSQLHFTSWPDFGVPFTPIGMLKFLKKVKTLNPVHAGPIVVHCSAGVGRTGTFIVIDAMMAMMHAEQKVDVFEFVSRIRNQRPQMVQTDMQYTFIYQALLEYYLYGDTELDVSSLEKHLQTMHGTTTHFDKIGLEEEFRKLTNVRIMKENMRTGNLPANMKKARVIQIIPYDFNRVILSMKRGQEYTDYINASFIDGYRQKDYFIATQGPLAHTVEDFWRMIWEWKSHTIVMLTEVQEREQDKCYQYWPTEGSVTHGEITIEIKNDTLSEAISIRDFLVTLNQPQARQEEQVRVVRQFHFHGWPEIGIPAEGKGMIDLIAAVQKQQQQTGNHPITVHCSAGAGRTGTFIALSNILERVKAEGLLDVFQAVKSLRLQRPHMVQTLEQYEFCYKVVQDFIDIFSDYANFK
Chain of VHR (P51452 whole entry): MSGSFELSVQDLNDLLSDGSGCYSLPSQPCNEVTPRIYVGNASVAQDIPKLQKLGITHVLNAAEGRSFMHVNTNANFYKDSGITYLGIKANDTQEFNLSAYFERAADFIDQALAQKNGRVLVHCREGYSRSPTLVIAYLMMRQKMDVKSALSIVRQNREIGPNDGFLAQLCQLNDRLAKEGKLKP

As to `O=C(C(c1ccccc1)S(=O)(=O)O)N1CCC(c2ccc(Cl)c(Cl)c2)CC1` (centres unmarked) [Compound L319N47], the IC50 is 99 µM at VHR; greater than 200 µM at PTPα; greater than 200 µM against PTPε; 150 µM at VHX (read-out: IC50 VHX); 76 µM on SHP2; 145 µM against PTP1B. The results for the half-maximal inhibitory concentration (IC50) on TcPTP, against PTPγ and against Meg2 were 160 µM, 180 µM and 147 µM, respectively.
As for `O=C(C(c1ccccc1)S(=O)(=O)O)N1CCCC2CCCCC21` (centres unmarked) [Compound L319N53], the half-maximal inhibitory concentration (IC50) against VHR, at PTPα, at PTPε, on VHX (read-out: IC50 VHX), at SHP2 and at PTP1B was greater than 200 µM each time. Besides, the IC50 at TcPTP, against PTPγ and on Meg2 was greater than 200 µM throughout.
Consider `O=C(CS(=O)(=O)O)Nc1nc2ccc([N+](=O)[O-])cc2s1` [Compound L335N15-07], for which the IC50 at VHR, on PTPα, against PTPε, on VHX (read-out: IC50 VHX), on VHX (setting [1]) and on SHP2 was greater than 100 µM in each case. The half-maximal inhibitory concentration (IC50) against PTP1B, on TcPTP, at PTPγ and on Meg2 was greater than 100 µM throughout.
For the compound `O=C(CS(=O)(=O)O)Nc1nc2ccccc2s1` [Compound L335N15], the IC50 against VHR, at PTPα, at PTPε, at VHX (read-out: IC50 VHX), on VHX (setting [1]) and on SHP2 was greater than 100 µM in each case. The half-maximal inhibitory concentration (IC50) against PTP1B, at TcPTP, at PTPγ and at Meg2 was greater than 100 µM each time.

Values taken from US10494332B2, “Protein tyrosine phosphatases or SHP2 inhibitors and uses thereof” (Indiana University Research and Technology Corporation, priority 2015, dated 2019).
